Assay results as given in patent US20110306568A1, “COMPOSITION CONTAINING GLUCOSYLGLYCEROL” (priority 2008, published 2011).

What was measured:
Type in all cases: cell-based
Aspergillus niger = test: Viable count of mold Aspergillus niger in aqueous glucosylglycerol solution with 3.5% w/w glucose; settings: A. niger; for Colony-forming units (CFU/g): 50% w/w glucosylglycerol, 3.5% w/w glucose, aqueous
Text: (§1) In addition, a another test was analogously conducted with mold Aspergillus niger and yeast fungi Candida albicans , with an aqueous solution containing 50% w/w of 2-O-α-D glucosylglycerol and 3.5% w/w of glucose being used in this case.

E. coli DSM 1576 = test: Viable count of E. coli DSM 1576 in aqueous glucosylglycerol solutions with 5% w/w glucose; settings: for Colony-forming units (CFU/g): 5% w/w glucose, aqueous
Candida albicans = test: Viable count of yeast fungi Candida albicans in aqueous glucosylglycerol solution with 3.5% w/w glucose; settings: C. albicans; for Colony-forming units (CFU/g): 50% w/w glucosylglycerol, 3.5% w/w glucose, aqueous
Text: as §1

[1] = glucosylglycerol of high concentration

SMILES: OCC(CO)O[C@H]1O[C@H](CO)[C@@H](O)[C@H](O)[C@H]1O [Glucosylglycerol, 2-O-α-D-glucosylglycerol]
- Colony-forming units (CFU/g) (Aspergillus niger; 0 days): 750,000 CFU/g
- Colony-forming units (CFU/g) (Aspergillus niger; 2 days): 350,000 CFU/g
- Colony-forming units (CFU/g) (Aspergillus niger; 7 days): 200,000 CFU/g
- Colony-forming units (CFU/g) (Aspergillus niger; 14 days): 170,000 CFU/g
- Colony-forming units (CFU/g) (Aspergillus niger; 21 days): 160,000 CFU/g
- Colony-forming units (CFU/g) (Aspergillus niger; 28 days): 12,000 CFU/g
- fungicidal effect (Aspergillus niger; [1]): fungicidal effects
- Colony-forming units (CFU/g) (E. coli DSM 1576; 20% w/w glucosylglycerol, 0 days): 300,000 CFU/g
- Colony-forming units (CFU/g) (E. coli DSM 1576; 20% w/w glucosylglycerol, 2 days): 280,000 CFU/g
- Colony-forming units (CFU/g) (E. coli DSM 1576; 20% w/w glucosylglycerol, 7 days): 100,000 CFU/g
- Colony-forming units (CFU/g) (E. coli DSM 1576; 20% w/w glucosylglycerol, 14 days): 5,000 CFU/g
- Colony-forming units (CFU/g) (E. coli DSM 1576; 20% w/w glucosylglycerol, 21 days): <100 CFU/g
- Colony-forming units (CFU/g) (E. coli DSM 1576; 20% w/w glucosylglycerol, 28 days): <100 CFU/g
- Colony-forming units (CFU/g) (E. coli DSM 1576; 30% w/w glucosylglycerol, 0 days): 300,000 CFU/g
- Colony-forming units (CFU/g) (E. coli DSM 1576; 30% w/w glucosylglycerol, 2 days): 130,000 CFU/g
- Colony-forming units (CFU/g) (E. coli DSM 1576; 30% w/w glucosylglycerol, 7 days): <1,000 CFU/g
- Colony-forming units (CFU/g) (E. coli DSM 1576; 30% w/w glucosylglycerol, 14 days): <100 CFU/g
- Colony-forming units (CFU/g) (E. coli DSM 1576; 30% w/w glucosylglycerol, 21 days): <100 CFU/g
- Colony-forming units (CFU/g) (E. coli DSM 1576; 30% w/w glucosylglycerol, 28 days): <100 CFU/g
- Colony-forming units (CFU/g) (E. coli DSM 1576; 50% w/w glucosylglycerol, 0 days): 300,000 CFU/g
- Colony-forming units (CFU/g) (E. coli DSM 1576; 50% w/w glucosylglycerol, 2 days): 150,000 CFU/g
- Colony-forming units (CFU/g) (E. coli DSM 1576; 50% w/w glucosylglycerol, 7 days): <1,000 CFU/g
- Colony-forming units (CFU/g) (E. coli DSM 1576; 50% w/w glucosylglycerol, 14 days): <100 CFU/g
- Colony-forming units (CFU/g) (E. coli DSM 1576; 50% w/w glucosylglycerol, 21 days): <100 CFU/g
- Colony-forming units (CFU/g) (E. coli DSM 1576; 50% w/w glucosylglycerol, 28 days): <100 CFU/g
- bactericidal effect (E. coli DSM 1576; [1]): highly bactericidal effects
- Colony-forming units (CFU/g) (Candida albicans; 0 days): 750,000 CFU/g
- Colony-forming units (CFU/g) (Candida albicans; 2 days): 320,000 CFU/g
- Colony-forming units (CFU/g) (Candida albicans; 7 days): 200,000 CFU/g
- Colony-forming units (CFU/g) (Candida albicans; 14 days): 190,000 CFU/g
- Colony-forming units (CFU/g) (Candida albicans; 21 days): 120,000 CFU/g
- Colony-forming units (CFU/g) (Candida albicans; 28 days): 45,000 CFU/g
- fungicidal effect (Candida albicans; [1]): fungicidal effects
